Source: patent US20090099169A1, “Benzofuran Compounds As EP1 Receptor Antagonists” (GLAXO GROUP LIMITED, priority 2006, published 2009)
Where a name gives a salt, the structure may show the parent alone.

Legend:
[1] = tested on: gastric lesions induced by taurocholate acid, aspirin or indomethacin; details: rats, Ogletree et al 1992; cited from earlier work
[2] = target: T1, human TP receptor (Homo sapiens, UniProt P21731); experiment: human TP calcium mobilisation assay; assay type: cell-based; details: CHO-K1 cells, antagonism of U46619; averages of a number of experiments; read-out: functional pKi value (human TP calcium mobilisation assay) (converted)
T1 construct: expressed in transfected cells; host or cells: CHO-K1
T1 sequence (P21731 1-343): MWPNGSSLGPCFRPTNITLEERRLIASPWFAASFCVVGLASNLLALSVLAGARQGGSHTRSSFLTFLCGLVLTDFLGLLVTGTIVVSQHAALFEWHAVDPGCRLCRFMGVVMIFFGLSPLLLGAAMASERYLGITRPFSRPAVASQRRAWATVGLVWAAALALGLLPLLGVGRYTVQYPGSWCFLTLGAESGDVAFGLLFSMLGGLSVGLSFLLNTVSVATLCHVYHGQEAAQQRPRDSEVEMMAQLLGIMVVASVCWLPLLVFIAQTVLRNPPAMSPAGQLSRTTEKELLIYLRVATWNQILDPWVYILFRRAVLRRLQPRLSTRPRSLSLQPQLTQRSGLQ
Experimental: To determine if a compound has agonist or antagonist activity at the TP receptor a functional calcium mobilisation assay may be performed. Briefly, the antagonist properties of compounds are assessed by their ability to inhibit the mobilisation of intracellular calcium ([Ca^2+]i) in response to activation of TP receptors by the stable TXA2 mimetic U46619 (9,11-dideoxy-11α,9α-epoxy-methanoprostaglandin F2α; commercially available from e.g Sigma-Aldrich). Increasing concentrations of antagonist reduce the amount of calcium that a given concentration of U46619 can mobilise. The net effect is to displace the U46619 concentration-effect curve. The amount of calcium produced is assessed using a calcium-sensitive fluorescent dye such as Fluo-4, AM and a suitable instrument such as a Fluorimetric Imaging Plate Reader (FLIPR). Increasing amounts of [Ca^2+]i produced by receptor activation increase the amount of fluorescence produced by the dye and give rise to an increasing signal. The signal may be detected using the FLIPR instrument and the data generated may be analysed with suitable curve-fitting software. The agonist activity of the compounds are determined by their ability to cause an increase in intracellular mobilisation in the absence of U46619.
(§1) The human TP calcium mobilisation assay utilises Chinese hamster ovary-K1 (CHO-K1) cells into which a stable (pCIN; BioTechniques 20 (1996): 102-110) vector containing TP cDNA has previously been transfected. Cells are cultured in suitable flasks containing culture medium such as DMEM:F-12 supplemented with 10% v/v foetal calf serum, 2 mM L-glutamine, 0.25 mg/ml geneticin, 100 μM flurbiprofen and 10 μg/ml puromycin.
(§2) For assay, cells are harvested using a proprietary reagent that dislodges cells such as Versene. Cells are re-suspended in a suitable quantity of fresh culture media for introduction into a 96-well plate. Following incubation for 24 hours at 37° C. the culture media is replaced with a medium containing Fluo-4 and the detergent pluronic acid, and a further incubation takes place. Concentrations of compounds are then added to the plate in order to construct concentration-effect curves. This may be performed on the FLIPR in order to assess the agonist properties of the compounds. Concentrations of U46619 are then added to the plate in order to assess the antagonist properties of the compounds.
The data so generated may be analysed by means of a computerised curve-fitting routine. The concentration of compound that elicits a half-maximal inhibition of the calcium mobilisation induced by U46619 (pIC50) may then be estimated, and the percentage activation caused by the compounds directly can be used to determine if there is any agonism present.

[3] = target: T2, human EP1 receptor (Homo sapiens, UniProt P34995); experiment: Binding assay for the human prostanoid EP1 receptor (radioligand competition); set-up: expressed in transfected cells; host or cells: CHO-K1 (membranes); details: CHO-K1 membranes; [3H]-PGE2 for Examples 1-17, 19, 33, 34, 60 and 61, 3-{2-[5-Bromo-2-(2,4-difluorobenzyloxy)-phenyl]-5-methyl-pyrrol-1-yl}-6-[3H3-methoxy]methoxy-benzoic acid for the remaining; averages of a number of experiments; read-out: pIC50 value (binding assay for the human prostanoid EP1 receptor) (converted)
T2 sequence (P34995 1-402): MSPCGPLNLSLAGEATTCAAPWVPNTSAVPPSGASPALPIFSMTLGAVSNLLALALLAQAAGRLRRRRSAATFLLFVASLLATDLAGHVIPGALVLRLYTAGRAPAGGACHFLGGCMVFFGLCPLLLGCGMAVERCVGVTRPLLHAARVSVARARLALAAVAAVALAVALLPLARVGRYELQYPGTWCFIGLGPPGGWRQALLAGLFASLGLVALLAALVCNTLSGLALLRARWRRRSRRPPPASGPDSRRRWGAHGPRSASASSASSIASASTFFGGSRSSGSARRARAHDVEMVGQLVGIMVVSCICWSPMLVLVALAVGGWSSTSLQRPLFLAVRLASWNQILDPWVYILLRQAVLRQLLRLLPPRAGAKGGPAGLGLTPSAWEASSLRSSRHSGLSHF
Summary of the method: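 Membranes from CHO-K1 cells stably expressing human EP1, in pH 6 MES buffer with 10 mM MgCl2. Competition with [3H]-PGE2 (3 nM final) for 30 min at 30 °C, or alternatively with a tritiated benzoic-acid ligand (0.2 nM final) for 45 min at 37 °C; filtration and scintillation counting, IC50 by non-linear fitting.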

[4] = target: T3, human EP3 receptor (Homo sapiens, UniProt P43115); experiment: human EP3 calcium mobilisation assay; assay type: cell-based; details: CHO-K1 cells, antagonism of PGE2; averages of a number of experiments; read-out: functional pKi value (human EP3 calcium mobilisation assay) (converted)
T3 construct: expressed in transfected cells; host or cells: CHO-K1
T3 sequence (P43115 1-390): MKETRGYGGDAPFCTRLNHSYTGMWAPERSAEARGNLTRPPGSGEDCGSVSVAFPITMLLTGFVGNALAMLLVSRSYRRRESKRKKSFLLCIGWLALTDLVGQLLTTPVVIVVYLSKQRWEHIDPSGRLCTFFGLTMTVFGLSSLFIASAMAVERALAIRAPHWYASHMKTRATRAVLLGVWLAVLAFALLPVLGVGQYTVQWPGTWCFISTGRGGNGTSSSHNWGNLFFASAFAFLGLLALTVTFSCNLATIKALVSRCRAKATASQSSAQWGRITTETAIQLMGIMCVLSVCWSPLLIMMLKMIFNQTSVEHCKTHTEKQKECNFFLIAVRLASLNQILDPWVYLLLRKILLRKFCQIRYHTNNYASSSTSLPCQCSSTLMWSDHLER
Experimental: Briefly, the antagonist properties of compounds are assessed by their ability to inhibit the mobilisation of intracellular calcium ([Ca^2+]i) in response to activation of EP1 or EP3 receptors by the natural agonist hormone prostaglandin E2 (PGE2). Increasing concentrations of antagonist reduce the amount of calcium that a given concentration of PGE2 can mobilise. The net effect is to displace the PGE2 concentration-effect curve to higher concentrations of PGE2. The amount of calcium produced is assessed using a calcium-sensitive fluorescent dye such as Fluo-4, AM and a suitable instrument such as a Fluorimetric Imaging Plate Reader (FLIPR). Increasing amounts of [Ca^2+]i produced by receptor activation increase the amount of fluorescence produced by the dye and give rise to an increasing signal. The signal may be detected using the FLIPR instrument and the data generated may be analysed with suitable curve-fitting software.
as §1, with “human EP1 or EP3” for “human TP”, “assay (hereafter referred to as ‘the calcium assay’)” for “assay”, “stable (PCIN;” for “stable (pCIN;”, “containing either EP1 or EP3” for “containing TP”
as §2, with “384-well” for “96-well”, “PGE2” for “U46619”
The data so generated may be analysed by means of a computerised curve-fitting routine. The concentration of compound that elicits a half-maximal inhibition of the calcium mobilisation induced by PGE2 (pIC50) may then be estimated.

[5] = tested on: rodent model of post-operative pain; details: Anesthesia and Analgesia 2001, 92, 233-238; cited from earlier work
[6] = tested on: rat model of chronic constriction injury; details: Anesthesia and Analgesia 2001, 93, 1012-7; cited from earlier work

For `O=C(O)Cc1ccc(CCNS(=O)(=O)c2ccc(Cl)cc2)cc1` [BM 13505], the gastric lesions [1] is given as “inhibit gastric lesions”.
With `CC(C)c1cc2cc(Cl)cc(Cc3ccc(-c4nc5ccccc5[nH]4)o3)c2o1` [Example 2, 2-(5-{[5-Chloro-2-(1-methylethyl)-1-benzofuran-7-yl]methyl}-2-furanyl)-1H-benzimidazole Hydrochloride] the Ki [2] was greater than 3.16 µM and the IC50 [3] was no more than 0.1 µM.
Compound `CC(C)c1cc2cc(Cl)cc(Cc3ccc(C(=O)Nc4c(F)cccc4F)o3)c2o1` [Example 8, 5-{[5-Chloro-2-(1-methylethyl)-1-benzofuran-7-yl]methyl}-N-(2,6-difluorophenyl)-2-furancarboxamide] has a Ki [2] greater than 3.16 µM and a Ki [4] of 0.501 to 10 µM.
For `Cc1cc(Cl)ccc1S(=O)(=O)NC[C@H]1C2CCC(CC2)[C@@H]1/C=C\CCCC(=O)O` [ONO-8711], the mechanical hyperalgesia [5] is listed as “inhibits mechanical hyperalgesia” and the hyperalgesia and allodynia [6] is listed as “reduces hyperalgesia and allodynia”.
